Measurements: PubChem BioAssay AID330 (DTP/NCI, 2004)
Where “and” joins values, the source holds several entries; their conditions need not be identical. Identical values can stand only once. Inconclusive results and toxic doses are left out. The calls were made as follows: active = survival T/C of 150% or more; inactive = T/C below 125% in these data.

Test system: P388 leukemia ip, CD2F1 mice, survival T/C
Assay: NCI In Vivo Anticancer Drug Screen. Data for tumor model P388 Leukemia (intraperitoneal) in CD2F1 (CDF1) mice
Settings: endpoint: median survival time, higher = longer survival
In short: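 Mice carrying the transplanted tumor received test compound or vehicle. Survival was recorded in each group, and the value is the treated-group measurement divided by that of the vehicle-treated control group.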

[1] = dose: 12.5 mg/kg/injection, schedule: Q01DX009 (ip), vehicle: Klucel (hydroxypropylcellulose) (HPC)
[2] = dose: 25.0 mg/kg/injection, schedule: Q01DX009 (ip), vehicle: Klucel (hydroxypropylcellulose) (HPC)
[3] = dose: 50.0 mg/kg/injection, schedule: Q01DX009 (ip), vehicle: Klucel (hydroxypropylcellulose) (HPC)
[4] = dose: 100.0 mg/kg/injection, schedule: Q01DX009 (ip), vehicle: Klucel (hydroxypropylcellulose) (HPC)
[5] = dose: 200.0 mg/kg/injection, schedule: Q01DX009 (ip), vehicle: Klucel (hydroxypropylcellulose) (HPC)
[6] = dose: 50.0 mg/kg/injection, schedule: Q01DX005 (ip), vehicle: Klucel (hydroxypropylcellulose) (HPC)
[7] = dose: 100.0 mg/kg/injection, schedule: Q01DX005 (ip), vehicle: Klucel (hydroxypropylcellulose) (HPC)
[8] = dose: 200.0 mg/kg/injection, schedule: Q01DX005 (ip), vehicle: Klucel (hydroxypropylcellulose) (HPC)
[9] = dose: 200.0 mg/kg/injection, schedule: Q01DX009 (ip), vehicle: saline with Tween-80
[10] = dose: 12.5 mg/kg/injection, schedule: Q01DX005 (ip), vehicle: saline with Tween-80
[11] = dose: 25.0 mg/kg/injection, schedule: Q01DX005 (ip), vehicle: saline with Tween-80
[12] = dose: 50.0 mg/kg/injection, schedule: Q01DX005 (ip), vehicle: saline with Tween-80

Measured: T/C

CCN(CC)Cc1cc(N=Nc2cc(OC)c(N=Nc3ccc([N+](=O)[O-])cc3)cc2OC)c2ccccc2c1O
inactive: [1] 110 % of control | [2] 100 % of control | [3] 107 % of control and 90 % of control | [4] 100 % of control (2×) and 94 % of control | dose: 400.0 mg/kg/injection, schedule: Q01DX009 (ip), vehicle: Klucel (hydroxypropylcellulose) (HPC) 101 % of control and 91 % of control

CCN(CC)CCN1C(=O)c2cccc3c(N)c(OC)cc(c23)C1=O
inactive: dose: 25.0 mg/kg/injection, schedule: Q01DX005 (ip), vehicle: saline 103 % of control | dose: 50.0 mg/kg/injection, schedule: Q01DX005 (ip), vehicle: saline 100 % of control and 97 % of control | dose: 100.0 mg/kg/injection, schedule: Q01DX005 (ip), vehicle: saline 100 % of control and 104 % of control

CSc1nccn[n+]1C
inactive: dose: 100.0 mg/kg/injection, schedule: Q01DX001 (ip), vehicle: saline 112 % of control | dose: 200.0 mg/kg/injection, schedule: Q01DX001 (ip), vehicle: saline 111 % of control

NC(=O)CCCCCBr
inactive: [3] 98 % of control | [4] 95 % of control | [5] 90 % of control

COc1ccc(C(O)OC2CC3C=CC2C3)cc1 (stereo not drawn)
inactive: dose: 12.5 mg/kg/injection, schedule: Q01DX009 (ip), vehicle: other 114 % of control | dose: 25.0 mg/kg/injection, schedule: Q01DX009 (ip), vehicle: other 110 % of control | dose: 50.0 mg/kg/injection, schedule: Q01DX009 (ip), vehicle: other 114 % of control | dose: 100.0 mg/kg/injection, schedule: Q01DX009 (ip), vehicle: other 114 % of control | dose: 200.0 mg/kg/injection, schedule: Q01DX009 (ip), vehicle: other 111 % of control

CC1(C)Cc2c(nc3ccccc3c2C(N)=O)-c2ccccc21
inactive: [6] 88 % of control | [7] 88 % of control | [8] 88 % of control

Cn1c(=O)c2c(ncn2CCNC(c2ccccc2)c2ccccc2)n(C)c1=O
inactive: dose: 50.0 mg/kg/injection, schedule: Q01DX005 (ip), vehicle: water 107 % of control | dose: 100.0 mg/kg/injection, schedule: Q01DX005 (ip), vehicle: water 107 % of control | dose: 200.0 mg/kg/injection, schedule: Q01DX005 (ip), vehicle: water 107 % of control

CC(C)=CCCC1(C)OC2(C)CCC1CC2 (stereo not drawn)
inactive: dose: 0.75 mg/kg/injection, schedule: Q01DX005 (ip), vehicle: Klucel (hydroxypropylcellulose) (HPC) 95 % of control | dose: 1.5 mg/kg/injection, schedule: Q01DX005 (ip), vehicle: Klucel (hydroxypropylcellulose) (HPC) 95 % of control | dose: 3.0 mg/kg/injection, schedule: Q01DX005 (ip), vehicle: Klucel (hydroxypropylcellulose) (HPC) 99 % of control | dose: 6.0 mg/kg/injection, schedule: Q01DX005 (ip), vehicle: Klucel (hydroxypropylcellulose) (HPC) 96 % of control

CC1(C)CNC(=S)O1
inactive: dose: 6.25 mg/kg/injection, schedule: Q01DX009 (ip), vehicle: Klucel (hydroxypropylcellulose) (HPC) 107 % of control | [1] 100 % of control | [2] 88 % of control and 89 % of control

C/C(=N\NC(=O)CCl)C(C)(C)C
inactive: dose: 25.0 mg/kg/injection, schedule: Q01DX009 (ip), vehicle: saline 111 % of control | dose: 50.0 mg/kg/injection, schedule: Q01DX009 (ip), vehicle: saline 109 % of control | dose: 100.0 mg/kg/injection, schedule: Q01DX009 (ip), vehicle: saline 103 % of control

C=C(C)C12CC(COC(=O)c3ccccc3)C34OC5(OC1C3C1OC1(COC(=O)CCCCCCCCCCCCCCC)C(O)C1(O)C(OC(=O)c3ccccc3)C(C)C(C(C)CCCCCCC5O)C14)O2 (stereo not drawn)
inactive: dose: 12.5 micrograms/kg/injection, schedule: Q01DX009 (ip), vehicle: saline 103 % of control | dose: 25.0 micrograms/kg/injection, schedule: Q01DX009 (ip), vehicle: saline 103 % of control | dose: 50.0 micrograms/kg/injection, schedule: Q01DX009 (ip), vehicle: saline 99 % of control

COC(=O)CC1(C(=O)OC)C2=C(CCSC2)N2CCCC21 (stereo not drawn)
inactive: dose: 3.75 mg/kg/injection, schedule: Q01DX009 (ip), vehicle: Klucel (hydroxypropylcellulose) (HPC) 97 % of control | dose: 7.5 mg/kg/injection, schedule: Q01DX009 (ip), vehicle: Klucel (hydroxypropylcellulose) (HPC) 97 % of control | dose: 15.0 mg/kg/injection, schedule: Q01DX009 (ip), vehicle: Klucel (hydroxypropylcellulose) (HPC) 100 % of control | dose: 30.0 mg/kg/injection, schedule: Q01DX009 (ip), vehicle: Klucel (hydroxypropylcellulose) (HPC) 100 % of control

CC(Nc1ccc([N+](=O)[O-])c2nonc12)C(=O)O (stereo not drawn)
inactive: dose: 6.25 mg/kg/injection, schedule: Q01DX009 (ip), vehicle: saline with Tween-80 108 % of control | dose: 12.5 mg/kg/injection, schedule: Q01DX009 (ip), vehicle: saline with Tween-80 100 % of control | dose: 25.0 mg/kg/injection, schedule: Q01DX009 (ip), vehicle: saline with Tween-80 111 % of control | [9] 86 % of control

c1ccc2c3c([nH]c2c1)CCCC3
inactive: [3] 102 % of control | [4] 103 % of control | [5] 111 % of control

Nc1[nH]c(=O)ncc1-c1ccc([N+](=O)[O-])cc1
inactive: [10] 95 % of control | [11] 97 % of control | [12] 101 % of control and 105 % of control

CC(=O)NC(=O)NC(C)=O
inactive: dose: 100.0 mg/kg/injection, schedule: Q01DX001 (ip), vehicle: methylcellulose (MC) 100 % of control | dose: 200.0 mg/kg/injection, schedule: Q01DX001 (ip), vehicle: methylcellulose (MC) 108 % of control | dose: 400.0 mg/kg/injection, schedule: Q01DX001 (ip), vehicle: methylcellulose (MC) 100 % of control

CN(C)CC(=O)Nc1ccc2c(c1)C(=O)c1ccc(NC(=O)CN(C)C)cc1C2=O
inactive: [6] 101 % of control | [7] 97 % of control | [8] 99 % of control

CCOC(=O)C1=S=C(SCCO)N(C)C1=O
inactive: dose: 100.0 mg/kg/injection, schedule: Q04DX002 (ip), vehicle: saline with Tween-80 95 % of control | dose: 200.0 mg/kg/injection, schedule: Q04DX002 (ip), vehicle: saline with Tween-80 103 % of control | dose: 400.0 mg/kg/injection, schedule: Q04DX002 (ip), vehicle: saline with Tween-80 97 % of control

O=C(/C=C/c1ccccc1)c1cc2c(cc1O)OCO2
inactive: dose: 60.0 mg/kg/injection, schedule: Q01DX005 (ip), vehicle: saline with Tween-80 103 % of control | dose: 120.0 mg/kg/injection, schedule: Q01DX005 (ip), vehicle: saline with Tween-80 107 % of control | dose: 240.0 mg/kg/injection, schedule: Q01DX005 (ip), vehicle: saline with Tween-80 100 % of control

O=C(O)c1c2ccccc2nc2ccccc12
inactive: [10] 106 % of control and 93 % of control | [11] 100 % of control and 95 % of control | [12] 104 % of control and 113 % of control and 121 % of control

Cc1ccc(NC(=O)Oc2ccc(C#N)cc2)cc1Cl
inactive: dose: 60.0 mg/kg/injection, schedule: Q01DX005 (ip), vehicle: Klucel (hydroxypropylcellulose) (HPC) 118 % of control | dose: 120.0 mg/kg/injection, schedule: Q01DX005 (ip), vehicle: Klucel (hydroxypropylcellulose) (HPC) 111 % of control | dose: 240.0 mg/kg/injection, schedule: Q01DX005 (ip), vehicle: Klucel (hydroxypropylcellulose) (HPC) 118 % of control

C1=CC2(C=CCC1)OCCO2
inactive: [12] 121 % of control

COc1ccc(CCNC(=O)Nc2ccc(C(C)(C)C)cc2)cc1OC
inactive: [12] 101 % of control | dose: 100.0 mg/kg/injection, schedule: Q01DX005 (ip), vehicle: saline with Tween-80 97 % of control | dose: 200.0 mg/kg/injection, schedule: Q01DX005 (ip), vehicle: saline with Tween-80 101 % of control

NC1=NC2(CS1)CSC(N)=N2
inactive: dose: 50.0 mg/kg/injection, schedule: Q01DX009 (ip), vehicle: saline with Tween-80 94 % of control | dose: 100.0 mg/kg/injection, schedule: Q01DX009 (ip), vehicle: saline with Tween-80 113 % of control | [9] 90 % of control

c1cnc2nsnc2c1
inactive: [1] 100 % of control | [2] 97 % of control | [3] 100 % of control and 106 % of control

CCC1CC(O)c2c(O)c3c(c(O)c2C1O)C(=O)c1cccc(O)c1C3=O (stereo not drawn) (tested in a mixture with another compound)
inactive: dose: 0.25 mg/kg/injection, schedule: Q04DX003 (ip), vehicle: other 102 % of control | dose: 30.0 micrograms/kg/injection, schedule: Q01DX009 (ip), vehicle: other 107 % of control | dose: 60.0 micrograms/kg/injection, schedule: Q01DX009 (ip), vehicle: other 106 % of control | dose: 130.0 micrograms/kg/injection, schedule: Q01DX009 (ip), vehicle: other 98 % of control
